On the set-up of data set [1]: method as in doi:10.1002/14651858.CD008965.pub4, PMID 25640810, PMID 12908848. The note with it: cited from earlier work.
Data set [2] can be described thus: Single-dose crossover pharmacokinetics of oseltamivir and oseltamivir carboxylate in plasma (HPLC-MS/MS, non-compartmental analysis). It is filed as in vivo, healthy Chinese subjects. The note with it: fed vs fasting; plasma analyte. An excerpt: This study was developed in healthy subjects in the fasting or postprandial state, using a single-dose, randomized, open-label, two-period, two-sequence, self-crossover design. It authorized by the Ethics Committee of the First Affiliated Hospital of Bengbu Medical College. The ethical approval process complies with the requirements of Good Clinical Practice (GCP), the Declaration of Helsinki and relevant Chinese laws and regulations. Registration number CTR20200764 at 26-Apr-2020. http://www.chinadrugtrials.org.cn/clinicaltrials.searchlist.dhtml.
According to "the Guiding Principles for Human Bioavailability and Bioequivalence test of Pharmaceutical Preparations (2015 Edition)", "the Guiding Principles for Human Bioequivalence Research of Chemical Drug Imitations with Pharmacokinetic Parameters as the End Point Evaluation Indicators", and recommended dose in Tamiflu® instructions, the single oral dose of 75 mg/12.5 mL was determined for the reference preparation and test preparation of this study. […] Assuming one-sided α = 0.05, β = 0.2, %CV of 31.87%, a mean ratio F between the test product and reference product of 1, and the bioequivalence interval of 80.00–125.00%, the sample size of the two-period, crossover study design is 35 cases, calculated by PASS software. […] The quantitative linear range of oseltamivir is 0.500–200 ng/mL, and the LLOQ is 0.500 ng/mL. The quantitative linear range of oseltamivir carboxylate is 4.00–800 ng/mL, and the LLOQ is 4.00 ng/mL.
Pharmacokinetic parameters of oseltamivir and oseltamivir carboxylate were calculated using Phoenix WinNonlin (Pharsight Corporation, 8.3.1) based on individual blood concentrations and sampling time (calculated by actual sampling time) using non-compartmental analysis (NCA), Cmax, Tmax, AUC0-t, AUC0-∞, t1/2, λz, as well as %AUCex for oseltamivir and oseltamivir carboxylate were included. […]

Data set [3] relates to influenza pneumonia. On the set-up: method as in PMID 33718494. Conditions: early treatment compared with late treatment; cited from earlier work.
On the set-up of data set [4]: method as in earlier work. Conditions: used for sample size estimation; cited from earlier work.

Take `CCOC(=O)C1=C[C@@H](OC(CC)CC)[C@H](NC(C)=O)[C@@H](N)C1` [oseltamivir phosphate]: the “incidence of other side effects (conjunctivitis, rhinorrhagia, allergy, cardiac arrhythmias, gastrointestinal bleeding, neuropsychiatric events etc.)” value in data set [1] is less than 1%. For the same compound, in data set [1] (most common side effects), the incidence of nausea is reported as 10% and the incidence of vomiting was 2–15%.

For the compound `CCC(CC)O[C@@H]1C=C(C(=O)O)C[C@H](N)[C@H]1NC(C)=O` [oseltamivir carboxylate], in data set [2], the “Cmax, AUC0-t under fed conditions” value is reported as “lowered” and the “change of AUC0-∞ after feeding” value was “decreases”.

As for `CCOC(=O)C1=C[C@@H](OC(CC)CC)[C@H](NC(C)=O)[C@@H](N)C1` [oseltamivir], in data set [2], the “change of AUC0-∞ after feeding” value is “increases”. In data set [3], the “reduction in ICU mortality” value was 33%. In data set [4], the “intra-individual coefficient of variation (%CV) of AUC” value is on record as 7.24–7.35% and the “intra-individual coefficient of variation (%CV) of Cmax” value is listed as 21.16–31.87%.
